Test results as given in patent US20150080438A1, “6,7-Dihydro-5H-benzo[7]annulene derivatives, processes for their preparation, pharmaceutical products comprising them and their use for preparing medicaments” (Bayer Intellectual Property GmbH, priority 2011, published 2015).

Each molecule was assayed against T1, oestrogen receptor (ER) (Homo sapiens, UniProt P03372) (assay: Anti-oestrogenic action in MVLN cells (inhibition of estradiol-induced luciferase, transactivation antagonism)). Settings: inhibition of estradiol-induced luciferase activity, read-out: Anti-oestrogenic action in vitro: MVLN transactivation antagonism IC50.
T1 construct: These MVLN cells express, along with the functional oestrogen receptor (ER), a reporter construct; endogenous in cells; host or cells: MVLN cells (MCF7 derivative with ER-responsive luciferase reporter)
T1 sequence (P03372 1-595): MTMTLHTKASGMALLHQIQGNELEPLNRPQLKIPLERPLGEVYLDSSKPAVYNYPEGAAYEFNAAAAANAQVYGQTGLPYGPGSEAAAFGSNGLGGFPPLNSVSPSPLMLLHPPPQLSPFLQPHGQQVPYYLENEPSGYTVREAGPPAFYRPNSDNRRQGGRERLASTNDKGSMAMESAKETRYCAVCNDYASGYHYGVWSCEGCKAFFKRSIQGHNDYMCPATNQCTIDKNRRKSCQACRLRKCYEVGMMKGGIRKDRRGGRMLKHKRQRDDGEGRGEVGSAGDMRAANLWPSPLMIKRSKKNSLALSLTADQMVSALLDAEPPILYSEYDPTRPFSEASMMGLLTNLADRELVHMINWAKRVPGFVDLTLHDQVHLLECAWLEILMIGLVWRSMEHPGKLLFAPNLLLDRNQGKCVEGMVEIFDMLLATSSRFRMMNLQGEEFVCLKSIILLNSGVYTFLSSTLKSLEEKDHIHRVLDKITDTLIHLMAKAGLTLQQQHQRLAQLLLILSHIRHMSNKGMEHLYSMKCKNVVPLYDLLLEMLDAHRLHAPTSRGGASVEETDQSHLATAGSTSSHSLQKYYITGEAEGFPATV
Assay type: cell-based
Procedure, shortened: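 MCF7-derived MVLN cells carrying an ER-driven luciferase reporter; test compounds applied with estradiol, and anti-oestrogenic action scored as inhibition of the estradiol-induced luciferase signal.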

In order of rising IC50:
1. O=S(=O)(CCCN(CCCO)CCCCCCC1=C(c2cccc(O)c2)CCCc2cc(O)ccc21)CCCC(F)(F)C(F)(F)F [Example 92, 8-(3-Hydroxyphenyl)-9-{6-[(3-hydroxypropyl){3-[(4,4,5,5,5-mpentafluoropentyl)sulphonyl]propyl}amino]hexyl}-6,7-dihydro-5H-benzo[7]annulen-3-ol]  1 nM
2. CC(C)(O)CN(CCCCCCC1=C(c2cccc(O)c2)CCCc2cc(O)ccc21)CCCS(=O)(=O)CCCC(F)(F)C(F)(F)F [Example 93, 9-{6-[(2-Hydroxy-2-methylpropyl){3-[(4,4,5,5,5-pentafluoropentyl)sulphonyl]propyl}amino]hexyl}-8-(3-hydroxyphenyl)-6,7-dihydro-5H-benzo[7]annulen-3-ol]  1 nM
3. COCCN(CCCCCCC1=C(c2cccc(O)c2)CCCc2cc(O)ccc21)CCCS(=O)(=O)CCCC(F)(F)C(F)(F)F [Example 106, 8-(3-Hydroxyphenyl)-9-{6-[(2-methoxyethyl){3-[(4,4,5,5,5-pentafluoropentyl)sulphonyl]propyl}amino]hexyl}-6,7-dihydro-5H-benzo[7]annulen-3-ol]  1 nM
4. CCN(CCCCCCC1=C(c2cccc(O)c2)CCCc2cc(O)ccc21)CCCS(=O)(=O)CCCC(F)(F)C(F)(F)F [Example 90, 9-[6-(Ethyl{3-[(4,4,5,5,5-pentafluoropentyl)sulphonyl]propyl}amino)hexyl]-8-(3-hydroxyphenyl)-6,7-dihydro-5H-benzo[7]annulen-3-ol]  2 nM
5. COCCN(CCCCCCC1=C(c2ccc(F)c(O)c2)CCCc2cc(O)ccc21)CCCS(=O)(=O)CCCC(F)(F)C(F)(F)F [Example 105, 8-(4-Fluoro-3-hydroxyphenyl)-9-{6-[(2-methoxyethyl){3-[(4,4,5,5,5-pentafluoropentyl)sulphonyl]propyl}amino]hexyl}-6,7-dihydro-5H-benzo[7]annulen-3-ol]  2 nM
6. O=S(=O)(CCCN(CCO)CCCCCCC1=C(c2cccc(O)c2)CCCc2cc(O)ccc21)CCCC(F)(F)C(F)(F)F [Example 91, 9-{6-[(2-Hydroxyethyl){3-[(4,4,5,5,5-pentafluoropentyl)sulphonyl]propyl}amino]hexyl}-8-(3-hydroxyphenyl)-6,7-dihydro-5H-benzo[7]annulen-3-ol]  3 nM
7. O=S(=O)(CCCN(CCO)CCCCCCC1=C(c2cccc(O)c2)CCCc2cc(O)ccc21)CCC(F)(F)F [Example 98, 9-{6-[(2-Hydroxyethyl){3-[(3,3,3-trifluoropropyl)sulphonyl]propyl}amino]hexyl}-8-(3-hydroxyphenyl)-6,7-dihydro-5H-benzo[7]annulen-3-ol]  3 nM
8. CC(C)(O)CN(CCCCCCC1=C(c2cccc(O)c2)CCCc2cc(O)ccc21)CCCS(=O)(=O)CCC(F)(F)F [Example 100, 9-{6-[(2-Hydroxy-2-methylpropyl){3-[(3,3,3-trifluoropropyl)sulphonyl]propyl}amino]hexyl}-8-(3-hydroxyphenyl)-6,7-dihydro-5H-benzo[7]annulen-3-ol]  3 nM
9. CN(CCCCCCC1=C(c2ccc(F)c(O)c2)CCCc2cc(O)c(F)cc21)CCCS(=O)(=O)CCCC(F)(F)C(F)(F)F [Example 101, 2-Fluoro-8-(4-fluoro-3-hydroxyphenyl)-9-[6-(methyl{3-[(4,4,5,5,5-pentafluoropentyl)sulphonyl]propyl}amino)hexyl]-6,7-dihydro-5H-benzo[7]annulen-3-ol]  3 nM
10. COCCCN(CCCCCCC1=C(c2cccc(O)c2)CCCc2cc(O)ccc21)CCCS(=O)(=O)CCCC(F)(F)C(F)(F)F [Example 107, 8-(3-Hydroxyphenyl)-9-{6-[(3-methoxypropyl){3-[(4,4,5,5,5-pentafluoropentyl)sulphonyl]propyl}amino]hexyl}-6,7-dihydro-5H-benzo[7]annulen-3-ol]  3 nM
11. CC(C)(O)CN(CCCCCCC1=C(c2ccccc2)CCCc2cc(O)ccc21)CCCS(=O)(=O)CCC(F)(F)F [Example 83, 9-{6-[(2-Hydroxy-2-methylpropyl){3-[(3,3,3-trifluoropropyl)sulphonyl]propyl}amino]hexyl}-8-phenyl-6,7-dihydro-5H-benzo[7]annulen-3-ol]  7 nM
12. O=S(=O)(CCCN(CCCO)CCCCCCC1=C(c2cccc(O)c2)CCCc2cc(O)ccc21)CCC(F)(F)F [Example 99, 8-(3-Hydroxyphenyl)-9-{6-[(3-hydroxypropyl){3-[(3,3,3-trifluoropropyl)sulphonyl]propyl}amino]hexyl}-6,7-dihydro-5H-benzo[7]annulen-3-ol]  8 nM
13. O=S(=O)(CCCN(CCO)CCCCCCC1=C(c2ccccc2)CCCc2cc(O)ccc21)CCC(F)(F)F [Example 79, 9-{6-[(2-Hydroxyethyl){3-[(3,3,3-trifluoropropyl)sulphonyl]propyl}amino]hexyl}-8-phenyl-6,7-dihydro-5H-benzo[7]annulen-3-ol]  9 nM
14. O=S(=O)(CCCN(CCO)CCCCCCC1=C(c2ccccc2)CCCc2cc(O)ccc21)CCCC(F)(F)C(F)(F)F [Example 71, 9-{6-[(2-Hydroxyethyl){3-[(4,4,5,5,5-pentafluoropentyl)sulphonyl]propyl}amino]hexyl}-8-phenyl-6,7-dihydro-5H-benzo[7]annulen-3-ol]  13 nM
15. CC(C)(O)CN(CCCCCCC1=C(c2ccccc2)CCCc2cc(O)ccc21)CCCS(=O)(=O)CCCC(F)(F)C(F)(F)F [Example 75, 9-{6-[(2-Hydroxy-2-methylpropyl){3-[(4,4,5,5,5-pentafluoropentyl)sulphonyl]propyl}amino]hexyl}-8-phenyl-6,7-dihydro-5H-benzo[7]annulen-3-01]  14 nM
16. O=S(=O)(CCCN(CCCO)CCCCCCC1=C(c2ccccc2)CCCc2cc(O)ccc21)CCCC(F)(F)C(F)(F)F [Example 73, 9-{6-[(3-Hydroxypropyl){3-[(4,4,5,5,5-pentafluoropentyl)sulphonyl]propyl}amino]hexyl}-8-phenyl-6,7-dihydro-5H-benzo[7]annulen-3-ol]  17 nM
17. CN(CCCCCCC1=C(c2ccccc2)CCCc2c1ccc(O)c2Cl)CCCCS(=O)(=O)CCCC(F)(F)C(F)(F)F [Example 103, 4-Chloro-9-[6-(methyl{4-[(4,4,5,5,5-pentafluoropentyl)sulphonyl]butyl}amino)hexyl]-8-phenyl-6,7-dihydro-5H-benzo[7]annulen-3-ol]  26 nM
18. O=S(=O)(CCCN(CCCO)CCCCCCC1=C(c2ccccc2)CCCc2cc(O)ccc21)CCC(F)(F)F [Example 81, 9-{6-[(3-Hydroxypropyl){3-[(3,3,3-trifluoropropyl)sulphonyl]propyl}amino]hexyl}-8-phenyl-6,7-dihydro-5H-benzo[7]annulen-3-ol]  39 nM
19. CN(CCCCCC1=C(c2ccccc2)CCCc2cc(O)ccc21)CCCCS(=O)(=O)CCCC(F)(F)C(F)(F)F [Example 85, 9-[5-(Methyl{4-[(4,4,5,5,5-pentafluoropentyl)sulphonyl]butyl}amino)pentyl]-8-phenyl-6,7-dihydro-5H-benzo[7]annulen-3-ol]  40 nM
20. CCN(CCCCCCC1=C(c2ccccc2)CCCc2cc(O)ccc21)CCCS(=O)(=O)CCC(F)(F)F [Example 77, 9-[6-(Ethyl{3-[(3,3,3-trifluoropropyl)sulphonyl]propyl}amino)hexyl]-8-phenyl-6,7-dihydro-5H-benzo[7]annulen-3-ol]  61 nM
